Values of other authors in publication PMC2975871 (The FEBS journal, 2010).
Values after ≈ are worked out from the molar mass of the structure shown.

Columns and labels:
[1] = system: I54M mutation
[2] = system: PR with mutation I50V

CC(C)CN(C[C@@H](O)[C@H](Cc1ccccc1)NC(=O)O[C@H]1CCOC1)S(=O)(=O)c1ccc(N)cc1 [amprenavir]
increased IC50 [1]: 6 fold

CC(C)CN(C[C@@H](O)[C@H](Cc1ccccc1)NC(=O)O[C@H]1CO[C@H]2OCC[C@H]21)S(=O)(=O)c1ccc(N)cc1 [DRV, darunavir]
worse inhibition relative to wild type enzyme [2]: 9 fold

CC(C)(C)NC(=O)[C@@H]1C[C@@H]2CCCC[C@@H]2CN1C[C@@H](O)[C@H](Cc1ccccc1)NC(=O)[C@H](CC(N)=O)NC(=O)c1ccc2ccccc2n1 [SQV, saquinavir]
water solubility: 36 µg/mL (≈ 53.7 µM) | decreased inhibition [2]: 20 fold

CC(C)(C)NC(=O)[C@@H]1CN(Cc2cccnc2)CCN1C[C@@H](O)C[C@@H](Cc1ccccc1)C(=O)N[C@H]1c2ccccc2C[C@H]1O [IDV, indinavir]
decreased inhibition [2]: 50 fold
